For test [1], the system named is Matrix protein 2 (Influenza A virus), P06821 [V27A]. The test can be described thus: Inhibition of influenza A virus wild type M2 proton channel V27A mutant expressed in Xenopus oocytes at 100 uM by two-electrode voltage clamp analysis. The test is classed as cell-based.
The subject of test [2] is Matrix protein 2 (Influenza A virus), P06821 [withheld]. Description: Inhibition of influenza A virus wild type M2 proton channel S31N mutant expressed in Xenopus oocytes at 100 uM by two-electrode voltage clamp analysis. The test is classed as cell-based.

SMILES strings stand for the structures. Active and inactive are the calls of the source. No cut-off for these calls is given here.

Turning to `C1CC23CCCC2(C1)CNC3` (centres undefined), the inhibition result in test [1] and in test [2] was “inactive” in each case.

Turning to `C1=CC[C@]23CCCC[C@@]2(C1)CNC3`, the inhibition entry in test [1] and in test [2] was “inactive” each time.

With `C=C1CC23CNCC2(C1)CC(=C)C3` (centres undefined), the inhibition entry in test [1] and in test [2] was “inactive” throughout.

For `C=C1CC23CCCC2(CNC3)C1` (centres undefined), the inhibition result in test [1] and in test [2] was “inactive” throughout.

Regarding `C=C1CC23CC=CCC2(CNC3)C1` (centres undefined), the inhibition entry in test [1] and in test [2] was “inactive” throughout.

As to `CC1CC23CC(C)CC2(C1)CN(C(=N)N)C3` (centres undefined), the inhibition entry in test [1] and in test [2] was “inactive” throughout.

Regarding `CC1CC23CNCC2(C1)CC(C)C3` (centres undefined), the inhibition result in test [1] and in test [2] was “inactive” each time.

For the origin of these results see ChEMBL document CHEMBL3351890, “Azapropellanes with anti-influenza a virus activity” (ACS Med Chem Lett, 2014).
